Patent US9453192B2, “High-acidity vinegar and method for producing the same” (priority 2012, dated 2016)
Read-outs that look alike come from different tables or passages of the source.

Key:
[1] = tested on: Acetobacter altoacetigenes MH-24 (FERM BP-491)
From the text: (§1) The present invention relates to a method for producing a high-acidity vinegar having acidity of 10% to 25%, particularly 15% to 25% by brewing, i.e., acetic acid fermentation. In general, the acidity of vinegar means the concentration of acetic acid (w/v %) in the vinegar. The acidity referred to herein means the acetic acid concentration determined by conducting neutralization titration of the sample (vinegar) with phenolphthalein as an indicator and 1N sodium hydroxide aqueous solution in the manner known to persons skilled in the art.
(§2) A culture solution (2.5 L) containing acetic acid (8 w/v %), ethanol (2 v/v %), Acetozym DS+2 (product of FRINGS; 0.15 w/v %), and a variety of additives at given concentrations was introduced into a 5 L-volume jar fermenter. The total nitrogen content of the culture solution was 0.006 w/v %. Cryopreserved Acetobacter altoacetigenes MH-24 (FERM BP-491) was inoculated into the culture solution to start acetic acid fermentation. Submerged fermentation involving aeration stirring was adopted for the fermentation. Fermentation was conducted under the conditions of a temperature at 30° C., a rotative speed of 600 rpm, and an aeration volume of 0.15 vvm.
(§3) After the start of fermentation, 95% ethanol was fed to the fermentation liquid until the acidity (acetic acid concentration: w/v %) of the fermentation liquid exceeded 15% so as to maintain the ethanol concentration in the fermentation liquid at 1.5 to 3 v/v %. At the time point at which the acidity exceeded 15% (approximately 15.5%) and the ethanol concentration reached about 0.5 v/v %, the fermentation liquid was pulled out such that approximately half of the total fermentation liquid volume is remained.
After the portion of the fermentation liquid was pulled out, the above components were added again without discontinuation of aeration and stirring of the remaining fermentation liquid such that the volume of the fermentation liquid was adjusted to 2.5 L and the composition of the fermentation liquid became equivalent to the composition of the original culture solution. Then, fermentation was continued in the above manner. Thereafter the cycle, in which fermentation was conducted until the acidity exceeded 15% (approximately 15.5%), approximately half of the total volume of the fermentation liquid was pulled out and the above components were added again to restart fermentation with decreased acidity, is repeated to conduct semi-continuous fermentation. Seven times repeats of the cycle from the start of fermentation to re-introduction of the components was regarded as one examination. Six examinations were conducted with each different condition of additives. […]

[2] = tested on: Acetobacter altoacetigenes MH-24 (FERM BP-491); assay: Semi-continuous acetic acid fermentation, culture solution with Acetozym DS+2 and additives (Example 1); type: cell-based; settings: for Final acidity: acidity when a portion of the fermentation liquid was pulled out; for Fermentation time: average time of one cycle (2nd to 7th cycles) until acidity exceeded 15%; for Productivity: rate of increase in acidity per hour
From the text: as §1, §2, §3
After the portion of the fermentation liquid was pulled out, the above components were added again without discontinuation of aeration and stirring of the remaining fermentation liquid such that the volume of the fermentation liquid was adjusted to 2.5 L and the composition of the fermentation liquid became equivalent to the composition of the original culture solution. Then, fermentation was continued in the above manner. Thereafter the cycle, in which fermentation was conducted until the acidity exceeded 15% (approximately 15.5%), approximately half of the total volume of the fermentation liquid was pulled out and the above components were added again to restart fermentation with decreased acidity, is repeated to conduct semi-continuous fermentation. Seven times repeats of the cycle from the start of fermentation to re-introduction of the components was regarded as one examination. Six examinations were conducted with each different condition of additives. Table 1 summarizes the average time duration required for one cycle, i.e., from the restart of fermentation to the time point at which the acidity exceeded 15%, (the average time of 2nd to 7th cycles), final acidity (acidity when a portion of the fermentation liquid was pulled out), and productivity (the rate of increase in acidity per hour) with the types and amounts of additives.

[3] = Glutathione 220 μM, 4 cycle repetitions

| Structure (SMILES) | Fermentation time [1, 3] [h] | Final acidity [1, 3] [%] | Productivity ([1]; Glutathione 220 μM, 4 cycle repetitions, rate of increase in acidity per hour) [%/h] | Effect on productivity ([1]; Glutathione used as additive (220 μM), versus no additive) | Final acidity ([2]; L-cystine 18 μM) [%] | Fermentation time ([2]; L-cystine 18 μM) [h] | Productivity ([2]; L-cystine 18 μM) [%/h] | Final acidity ([2]; L-cystine 45 μM) [%] | Fermentation time ([2]; L-cystine 45 μM) [h] | Productivity ([2]; L-cystine 45 μM) [%/h] | Final acidity ([2]; L-cystine 90 μM) [%] | Fermentation time ([2]; L-cystine 90 μM) [h] | Productivity ([2]; L-cystine 90 μM) [%/h] | Effect on productivity as compared with Exam 1 (no additive) ([2]; L-cystine alone, 18 μM (Exam 2)) |
| --- | --- | --- | --- | --- | --- | --- | --- | --- | --- | --- | --- | --- | --- | --- |
| N[C@@H](CCC(=O)N[C@@H](CS)C(=O)NCC(=O)O)C(=O)O [Glutathione] | 51.3 | 15.4 | 0.144 | productivity was significantly improved | – | – | – | – | – | – | – | – | – | – |
| N[C@@H](CSSC[C@H](N)C(=O)O)C(=O)O [L-cystine] | – | – | – | – | 15.4 | 48.9 | 0.151 | 15.3 | 41.7 | 0.175 | 15.3 | 37.5 | 0.195 | effect of improving productivity was confirmed |
